Square brackets hold non-standard residues; d marks the D form. Peptide text beside a SMILES is read from it. Ahx = NCCCCCC(=O)O

Holding throughout (type): cell-based
Experiment [1] relates to TZM-bl. Nature of the experiment: Inhibition of HIV1 HXB2 gp160-mediated cell-cell fusion between viral envelope expressing human HL2/3 cells to human TZM-bl cells expressing CD4, tat, and rev by luciferase reporter gene assay relative to SC22EK. To be noted: Human immunodeficiency virus 1. Background: A reporter such as luciferase makes a cellular process visible.
The nature of experiment [2]: Inhibition of HIV1 HXB2 gp160-mediated cell-cell fusion between viral envelope expressing human HL2/3 cells to human TZM-bl cells expressing CD4, tat, and rev by luciferase reporter gene assay. To be noted: Human immunodeficiency virus 1, HXB2, TZM-bl.
The test system of experiment [3] is TZM-bl. Nature of the experiment: Inhibition of HIV1 HXB2 gp160-mediated cell-cell fusion between viral envelope expressing human HL2/3 cells to human TZM-bl cells expressing CD4, tat, and rev by luciferase reporter gene assay relative to C22. The note with it: Human immunodeficiency virus 1.

For the compound `CC[C@H](C)[C@H](NC(=O)[C@H](CC(C)C)NC(=O)[C@H](CCC(=O)O)NC(=O)[C@H](CCC(=O)O)NC(=O)[C@@H](NC(=O)[C@H](CCCCN)NC(=O)[C@H](CCCCN)NC(=O)[C@@H](NC(=O)[C@H](Cc1ccc(O)cc1)NC(=O)[C@H](CCC(=O)O)NC(=O)[C@H](CCC(=O)O)NC(=O)[C@@H](NC(=O)[C@H](CCCCN)NC(=O)[C@H](CCCCN)NC(=O)[C@H](CC(=O)O)NC(=O)[C@H](Cc1c[nH]c2ccccc12)NC(=O)[C@H](CCC(=O)O)NC(=O)[C@H](CCC(=O)O)NC(=O)[C@H](Cc1c[nH]c2ccccc12)NC(=O)CCCCCNC(=O)[C@H](CS)NC(C)=O)[C@@H](C)CC)[C@@H](C)O)[C@@H](C)CC)C(=O)N[C@@H](CCCCN)C(=O)N[C@@H](CCCCN)C(=O)N[C@@H](CO)C(=O)O` (Ac-C[Ahx]WEEWDKKIEEYTKKIEELIKKS-OH), in experiment [1], the Ratio was found to be 8.97. Further, in experiment [2], it took 38.6 nM to reach half-maximal inhibition (IC50).

Turning to `CC[C@H](C)[C@H](NC(=O)[C@H](CC(C)C)NC(=O)[C@H](CO)NC(=O)[C@H](Cc1cnc[nH]1)NC(=O)[C@@H](NC(=O)[C@H](CC(C)C)NC(=O)[C@H](CO)NC(=O)[C@@H](NC(=O)[C@H](Cc1ccc(O)cc1)NC(=O)[C@H](CC(N)=O)NC(=O)[C@H](CC(N)=O)NC(=O)[C@@H](NC(=O)[C@H](CCC(=O)O)NC(=O)[C@H](CCCNC(=N)N)NC(=O)[C@H](CC(=O)O)NC(=O)[C@H](Cc1c[nH]c2ccccc12)NC(=O)[C@H](CCC(=O)O)NC(=O)[C@H](CCSC)NC(=O)[C@H](Cc1c[nH]c2ccccc12)NC(=O)CCCCCNC(=O)[C@H](CS)NC(C)=O)[C@@H](C)CC)[C@@H](C)O)[C@@H](C)CC)C(=O)N[C@@H](CCC(=O)O)C(=O)N[C@@H](CCC(=O)O)C(=O)N[C@@H](CO)C(=O)O` (Ac-C[Ahx]WMEWDREINNYTSLIHSLIEES-OH), the Ratio in experiment [3] turned out to be 2.21. Moreover, the IC50 (in general, the concentration that gives 50% inhibition) in experiment [2] was determined as 561 nM.

Source of the values: ChEMBL document CHEMBL2412996, “Increase of anti-HIV activity of C-peptide fusion inhibitors using a bivalent drug design approach” (Bioorg Med Chem Lett, 2013).
